Square brackets hold non-standard residues; d marks the D form. Peptide text beside a SMILES is read from it. * marks the point of attachment. X8 = C[C@H](N)/C(F)=C/[C@@H](Cc1ccccc1)C(=O)*; X1 = CC(C)[C@H](/C=C(\Cl)[C@H](C)N)C(=O)*; X2 = CC(C)[C@H](/C=C(\F)[C@H](C)N)C(=O)*; X3 = C/C(=C\[C@H](C(=O)*)C(C)C)[C@H](C)N; NMeA = CN[C@@H](C)C(=O)O
Legend:
[1] = tested on: SAOS-2; assay: Compound was evaluated for the intrinsic activity for accumulation of cyclic AMP in SaOS-2 (human osteosarcoma) cells.; assay type: functional
[2] = tested on: UMR106-06; assay: Compound was evaluated for the intrinsic activity for accumulation of cyclic AMP in UMR10606 (rat osteosarcoma) cells.; assay type: functional
[3] = tested on: UMR106-06; assay: Compound was evaluated for the accumulation of cyclic AMP in UMR10606 (rat osteosarcoma) cells.; assay type: functional, cell-based
[4] = tested on: SAOS-2; assay: Compound was evaluated for the accumulation of cyclic AMP in SaOS-2 (human osteosarcoma) cells.; assay type: functional, cell-based
[5] = tested on: OK-1; assay: Displacement of [125I]-chick PTHrP-(1-36)-NH2 from opossum (OK-1) kidney cells; assay type: functional
[6] = tested on: OK-1; assay: Compound was evaluated for the intrinsic activity for accumulation of cyclic AMP in OK-1 cells.; assay type: functional, opossum
[7] = tested on: OK-1; assay: Accumulation of cyclic AMP in OK-1 cells.; assay type: functional, cell-based, opossum

EC50 ([3]; Rattus norvegicus, UMR106-06) | EC50 ([4]; Homo sapiens, SAOS-2) | EC50 ([7]; opossum, OK-1) | EC50 ([3]; umr106-06) | EC50 ([4]; saos-2) | EC50 ([7]; ok-1) | SMILES | Intrinsic activity [1] | Intrinsic activity [2] | pKD [5] | Intrinsic activity [6]
2.6 nM | 1.6 nM | 7.4 nM | – | – | – | CC[C@H](C)[C@H](NC(=O)[C@H](CCC(=O)O)NC(=O)[C@H](CO)NC(=O)[C@@H](NC(=O)[C@H](C)NC)C(C)C)C(=O)N[C@@H](CCC(N)=O)C(=O)N[C@@H](CC(C)C)C(=O)N[C@@H](CCSC)C(=O)N[C@@H](Cc1c[nH]cn1)C(=O)N[C@@H](CC(N)=O)C(=O)N[C@@H](CC(C)C)C(=O)NCC(=O)N[C@@H](CCCCN)C(=O)N[C@@H](Cc1c[nH]cn1)C(=O)N[C@@H](CC(C)C)C(=O)N[C@@H](CC(N)=O)C(=O)N[C@@H](CO)C(=O)N[C@@H](CCSC)C(=O)N[C@@H](CCC(=O)O)C(=O)N[C@@H](CCCN=C(N)N)C(=O)N[C@H](C(=O)N[C@@H](CCC(=O)O)C(=O)N[C@@H](Cc1c[nH]c2ccccc12)C(=O)N[C@@H](CC(C)C)C(=O)N[C@@H](CCCN=C(N)N)C(=O)N[C@@H](CCCCN)C(=O)N[C@@H](CCCCN)C(=O)N[C@@H](CC(C)C)C(=O)N[C@@H](CCC(N)=O)C(=O)N[C@@H](CC(=O)O)C(=O)N[C@H](C(=O)N[C@@H](Cc1c[nH]cn1)C(=O)N[C@@H](CC(N)=O)C(=O)N[C@@H](Cc1ccccc1)C(=O)N[C@H](C(=O)N[C@@H](C)C(N)=O)C(C)C)C(C)C)C(C)C (H-[NMeA]VSEIQLMHNLGKHLNSMERVEWLRKKLQDVHNFVA-NH2) | 1 | 1 | 8.5 | 0.9
0.65 nM | 0.85 nM | 7.9 nM | – | – | – | CC[C@H](C)[C@H](NC(=O)[C@H](CCC(=O)O)NC(=O)[C@H](CO)NC(=O)[C@@H](/C=C(\Cl)[C@H](C)N)C(C)C)C(=O)N[C@@H](CCC(N)=O)C(=O)N[C@@H](CC(C)C)C(=O)N[C@@H](CCSC)C(=O)N[C@@H](Cc1c[nH]cn1)C(=O)N[C@@H](CC(N)=O)C(=O)N[C@@H](CC(C)C)C(=O)NCC(=O)N[C@@H](CCCCN)C(=O)N[C@@H](Cc1c[nH]cn1)C(=O)N[C@@H](CC(C)C)C(=O)N[C@@H](CC(N)=O)C(=O)N[C@@H](CO)C(=O)N[C@@H](CCSC)C(=O)N[C@@H](CCC(=O)O)C(=O)N[C@@H](CCCN=C(N)N)C(=O)N[C@H](C(=O)N[C@@H](CCC(=O)O)C(=O)N[C@@H](Cc1c[nH]c2ccccc12)C(=O)N[C@@H](CC(C)C)C(=O)N[C@@H](CCCN=C(N)N)C(=O)N[C@@H](CCCCN)C(=O)N[C@@H](CCCCN)C(=O)N[C@@H](CC(C)C)C(=O)N[C@@H](CCC(N)=O)C(=O)N[C@@H](CC(=O)O)C(=O)N[C@H](C(=O)N[C@@H](Cc1c[nH]cn1)C(=O)N[C@@H](CC(N)=O)C(=O)N[C@@H](Cc1ccccc1)C(=O)N[C@H](C(=O)N[C@@H](C)C(N)=O)C(C)C)C(C)C)C(C)C (X1-SEIQLMHNLGKHLNSMERVEWLRKKLQDVHNFVA-NH2) | 1 | 1 | 8.9 | 1.1
1.6 nM | 1.5 nM | 4.4 nM | – | – | – | CC[C@H](C)[C@H](NC(=O)[C@H](CCC(=O)O)NC(=O)[C@H](CO)NC(=O)[C@@H](/C=C(\F)[C@H](C)N)C(C)C)C(=O)N[C@@H](CCC(N)=O)C(=O)N[C@@H](CC(C)C)C(=O)N[C@@H](CCSC)C(=O)N[C@@H](Cc1c[nH]cn1)C(=O)N[C@@H](CC(N)=O)C(=O)N[C@@H](CC(C)C)C(=O)NCC(=O)N[C@@H](CCCCN)C(=O)N[C@@H](Cc1c[nH]cn1)C(=O)N[C@@H](CC(C)C)C(=O)N[C@@H](CC(N)=O)C(=O)N[C@@H](CO)C(=O)N[C@@H](CCSC)C(=O)N[C@@H](CCC(=O)O)C(=O)N[C@@H](CCCN=C(N)N)C(=O)N[C@H](C(=O)N[C@@H](CCC(=O)O)C(=O)N[C@@H](Cc1c[nH]c2ccccc12)C(=O)N[C@@H](CC(C)C)C(=O)N[C@@H](CCCN=C(N)N)C(=O)N[C@@H](CCCCN)C(=O)N[C@@H](CCCCN)C(=O)N[C@@H](CC(C)C)C(=O)N[C@@H](CCC(N)=O)C(=O)N[C@@H](CC(=O)O)C(=O)N[C@H](C(=O)N[C@@H](Cc1c[nH]cn1)C(=O)N[C@@H](CC(N)=O)C(=O)N[C@@H](Cc1ccccc1)C(=O)N[C@H](C(=O)N[C@@H](C)C(N)=O)C(C)C)C(C)C)C(C)C (X2-SEIQLMHNLGKHLNSMERVEWLRKKLQDVHNFVA-NH2) | 0.89 | 1 | 8.9 | 1
1.2 nM | 1.1 nM | 4.4 nM | – | – | – | CC[C@H](C)[C@H](NC(=O)[C@H](CCC(=O)O)NC(=O)[C@H](CO)NC(=O)[C@@H](/C=C(\C)[C@H](C)N)C(C)C)C(=O)N[C@@H](CCC(N)=O)C(=O)N[C@@H](CC(C)C)C(=O)N[C@@H](CCSC)C(=O)N[C@@H](Cc1c[nH]cn1)C(=O)N[C@@H](CC(N)=O)C(=O)N[C@@H](CC(C)C)C(=O)NCC(=O)N[C@@H](CCCCN)C(=O)N[C@@H](Cc1c[nH]cn1)C(=O)N[C@@H](CC(C)C)C(=O)N[C@@H](CC(N)=O)C(=O)N[C@@H](CO)C(=O)N[C@@H](CCSC)C(=O)N[C@@H](CCC(=O)O)C(=O)N[C@@H](CCCN=C(N)N)C(=O)N[C@H](C(=O)N[C@@H](CCC(=O)O)C(=O)N[C@@H](Cc1c[nH]c2ccccc12)C(=O)N[C@@H](CC(C)C)C(=O)N[C@@H](CCCN=C(N)N)C(=O)N[C@@H](CCCCN)C(=O)N[C@@H](CCCCN)C(=O)N[C@@H](CC(C)C)C(=O)N[C@@H](CCC(N)=O)C(=O)N[C@@H](CC(=O)O)C(=O)N[C@H](C(=O)N[C@@H](Cc1c[nH]cn1)C(=O)N[C@@H](CC(N)=O)C(=O)N[C@@H](Cc1ccccc1)C(=O)N[C@H](C(=O)N[C@@H](C)C(N)=O)C(C)C)C(C)C)C(C)C (X3-SEIQLMHNLGKHLNSMERVEWLRKKLQDVHNFVA-NH2) | 1 | 1 | 9 | 1
26 nM | – | > 1000 nM | – | – | – | CC[C@H](C)[C@H](NC(=O)[C@H](CCC(=O)O)NC(=O)[C@H](CO)NC(=O)[C@@H](/C=C(\F)[C@H](C)N)Cc1ccccc1)C(=O)N[C@@H](CCC(N)=O)C(=O)N[C@@H](CC(C)C)C(=O)N[C@@H](CCSC)C(=O)N[C@@H](Cc1c[nH]cn1)C(=O)N[C@@H](CC(N)=O)C(=O)N[C@@H](CC(C)C)C(=O)NCC(=O)N[C@@H](CCCCN)C(=O)N[C@@H](Cc1c[nH]cn1)C(=O)N[C@@H](CC(C)C)C(=O)N[C@@H](CC(N)=O)C(=O)N[C@@H](CO)C(=O)N[C@@H](CCSC)C(=O)N[C@@H](CCC(=O)O)C(=O)N[C@@H](CCCN=C(N)N)C(=O)N[C@H](C(=O)N[C@@H](CCC(=O)O)C(=O)N[C@@H](Cc1c[nH]c2ccccc12)C(=O)N[C@@H](CC(C)C)C(=O)N[C@@H](CCCN=C(N)N)C(=O)N[C@@H](CCCCN)C(=O)N[C@@H](CCCCN)C(=O)N[C@@H](CC(C)C)C(=O)N[C@@H](CCC(N)=O)C(=O)N[C@@H](CC(=O)O)C(=O)N[C@H](C(=O)N[C@@H](Cc1c[nH]cn1)C(=O)N[C@@H](CC(N)=O)C(=O)N[C@@H](Cc1ccccc1)C(=O)N[C@H](C(=O)N[C@@H](C)C(N)=O)C(C)C)C(C)C)C(C)C (X8-SEIQLMHNLGKHLNSMERVEWLRKKLQDVHNFVA-NH2) | – | 0.08 | 8.6 | <0.1
– | – | – | 3.3 nM | 3 nM | 5.9 nM | CC[C@H](C)[C@H](NC(=O)[C@H](CCC(=O)O)NC(=O)[C@H](CO)NC(=O)[C@@H](NC(=O)[C@H](C)N)C(C)C)C(=O)N[C@@H](CCC(N)=O)C(=O)N[C@@H](CC(C)C)C(=O)N[C@@H](CCSC)C(=O)N[C@@H](Cc1c[nH]cn1)C(=O)N[C@@H](CC(N)=O)C(=O)N[C@@H](CC(C)C)C(=O)NCC(=O)N[C@@H](CCCCN)C(=O)N[C@@H](Cc1c[nH]cn1)C(=O)N[C@@H](CC(C)C)C(=O)N[C@@H](CC(N)=O)C(=O)N[C@@H](CO)C(=O)N[C@@H](CCSC)C(=O)N[C@@H](CCC(=O)O)C(=O)N[C@@H](CCCN=C(N)N)C(=O)N[C@H](C(=O)N[C@@H](CCC(=O)O)C(=O)N[C@@H](Cc1c[nH]c2ccccc12)C(=O)N[C@@H](CC(C)C)C(=O)N[C@@H](CCCN=C(N)N)C(=O)N[C@@H](CCCCN)C(=O)N[C@@H](CCCCN)C(=O)N[C@@H](CC(C)C)C(=O)N[C@@H](CCC(N)=O)C(=O)N[C@@H](CC(=O)O)C(=O)N[C@H](C(=O)N[C@@H](Cc1c[nH]cn1)C(=O)N[C@@H](CC(N)=O)C(=O)N[C@@H](Cc1ccccc1)C(=O)N[C@H](C(=O)N[C@@H](C)C(N)=O)C(C)C)C(C)C)C(C)C (stereo in doubt; form 1) | 0.95 | 1 | 8.4 | 1
– | 2.4 nM | 7 nM | 1 nM | – | – | CC[C@H](C)[C@H](NC(=O)[C@H](CCC(=O)O)NC(=O)[C@H](CO)NC(=O)[C@@H](NC(=O)[C@H](C)N)C(C)C)C(=O)N[C@@H](CCC(N)=O)C(=O)N[C@@H](CC(C)C)C(=O)N[C@@H](CCSC)C(=O)N[C@@H](Cc1c[nH]cn1)C(=O)N[C@@H](CC(N)=O)C(=O)N[C@@H](CC(C)C)C(=O)NCC(=O)N[C@@H](CCCCN)C(=O)N[C@@H](Cc1c[nH]cn1)C(=O)N[C@@H](CC(C)C)C(=O)N[C@@H](CC(N)=O)C(=O)N[C@@H](CO)C(=O)N[C@@H](CCSC)C(=O)N[C@@H](CCC(=O)O)C(=O)N[C@@H](CCCN=C(N)N)C(=O)N[C@H](C(=O)N[C@@H](CCC(=O)O)C(=O)N[C@@H](Cc1c[nH]c2ccccc12)C(=O)N[C@@H](CC(C)C)C(=O)N[C@@H](CCCN=C(N)N)C(=O)N[C@@H](CCCCN)C(=O)N[C@@H](CCCCN)C(=O)N[C@@H](CC(C)C)C(=O)N[C@@H](CCC(N)=O)C(=O)N[C@@H](CC(=O)O)C(=O)N[C@H](C(=O)N[C@@H](Cc1c[nH]cn1)C(=O)N[C@@H](CC(N)=O)C(=O)N[C@@H](Cc1ccccc1)C(=O)N[C@H](C(=O)N[C@@H](C)C(N)=O)C(C)C)C(C)C)C(C)C (stereo in doubt; form 2) | 1 | 0.95 | 8.1 | 1

Source: ChEMBL document CHEMBL1159136, “Dipeptide mimetics can substitute for the receptor activation domain resulting in highly potent analogues of hPTH(136)” (Bioorg Med Chem Lett, 1996)
